Laboratory results reported in ChEMBL document CHEMBL1629443 (J Med Chem, 2010).

Key:
[1] = biological target: T1, Histone deacetylase 8 (Homo sapiens, UniProt Q9BY41); test: Inhibition of Flag tagged human recombinant HDAC8 expressed in Sf21 cells
T1 sequence (Q9BY41 whole entry): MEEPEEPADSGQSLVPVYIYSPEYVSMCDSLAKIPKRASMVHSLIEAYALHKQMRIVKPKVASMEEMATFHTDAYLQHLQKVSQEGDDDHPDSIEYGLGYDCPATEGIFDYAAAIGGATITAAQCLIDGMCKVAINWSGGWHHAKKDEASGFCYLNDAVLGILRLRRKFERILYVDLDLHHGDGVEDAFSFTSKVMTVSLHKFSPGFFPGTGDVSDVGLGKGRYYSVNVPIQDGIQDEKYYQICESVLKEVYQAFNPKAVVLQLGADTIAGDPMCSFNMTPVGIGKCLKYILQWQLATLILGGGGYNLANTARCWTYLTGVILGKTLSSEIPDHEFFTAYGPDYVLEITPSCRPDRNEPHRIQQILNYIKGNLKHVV

[2] = system: CAL-27; test: Cytotoxicity against human CAL27 cells overexpressing EGFR by resazurin dye reduction assay
[3] = biological target: Receptor tyrosine-protein kinase erbB-2 (Homo sapiens, UniProt P04626); test: Inhibition of HER2 by flash plate based radioactive enzyme assay
Receptor tyrosine-protein kinase erbB-2, sequence (P04626 whole entry): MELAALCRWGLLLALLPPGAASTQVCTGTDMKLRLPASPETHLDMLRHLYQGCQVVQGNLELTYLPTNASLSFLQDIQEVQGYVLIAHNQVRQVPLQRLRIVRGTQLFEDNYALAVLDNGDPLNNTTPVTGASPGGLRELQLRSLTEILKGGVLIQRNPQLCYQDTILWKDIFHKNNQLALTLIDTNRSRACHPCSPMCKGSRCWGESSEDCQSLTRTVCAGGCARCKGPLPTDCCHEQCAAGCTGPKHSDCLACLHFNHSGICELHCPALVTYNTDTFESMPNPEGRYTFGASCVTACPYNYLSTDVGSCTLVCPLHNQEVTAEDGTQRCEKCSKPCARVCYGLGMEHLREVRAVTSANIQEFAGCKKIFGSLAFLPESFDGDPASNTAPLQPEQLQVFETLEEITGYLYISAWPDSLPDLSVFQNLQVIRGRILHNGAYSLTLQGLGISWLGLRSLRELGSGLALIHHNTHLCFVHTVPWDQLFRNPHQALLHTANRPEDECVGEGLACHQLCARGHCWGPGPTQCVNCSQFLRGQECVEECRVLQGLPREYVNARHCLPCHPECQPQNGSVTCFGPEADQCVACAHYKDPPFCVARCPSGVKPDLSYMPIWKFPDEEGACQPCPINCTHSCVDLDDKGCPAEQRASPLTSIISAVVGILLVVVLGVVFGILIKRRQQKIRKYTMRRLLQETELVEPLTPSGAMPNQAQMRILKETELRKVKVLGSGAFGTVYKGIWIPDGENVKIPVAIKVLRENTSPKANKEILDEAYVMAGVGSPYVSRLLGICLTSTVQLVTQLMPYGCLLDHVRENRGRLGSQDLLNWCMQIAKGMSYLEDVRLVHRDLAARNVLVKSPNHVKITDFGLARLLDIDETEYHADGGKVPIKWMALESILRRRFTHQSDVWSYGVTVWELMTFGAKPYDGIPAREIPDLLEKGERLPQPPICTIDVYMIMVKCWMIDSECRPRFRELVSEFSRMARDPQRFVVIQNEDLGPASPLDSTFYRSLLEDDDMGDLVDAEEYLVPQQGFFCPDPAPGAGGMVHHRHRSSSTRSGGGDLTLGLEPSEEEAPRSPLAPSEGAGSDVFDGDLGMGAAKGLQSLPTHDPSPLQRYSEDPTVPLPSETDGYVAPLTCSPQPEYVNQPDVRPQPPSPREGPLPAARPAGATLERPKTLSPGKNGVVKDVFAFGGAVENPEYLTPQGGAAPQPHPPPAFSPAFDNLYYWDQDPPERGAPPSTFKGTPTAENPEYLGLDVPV

[4] = system: A549; test: Cytotoxicity against human A549 cells overexpressing HDAC by resazurin dye reduction assay
[5] = system: SK-BR-3; test: Cytotoxicity against human SKBR3 cells overexpressing HER2 by resazurin dye reduction assay
[6] = system: A-431; test: Cytotoxicity against human A431 cells overexpressing EGFR by resazurin dye reduction assay
[7] = biological target: Cyclin-dependent kinase 2 (Homo sapiens, UniProt P24941); test: Inhibition of CDK2 by flash plate based radioactive enzyme assay
[8] = biological target: T2, Epidermal growth factor receptor (Homo sapiens, UniProt P00533); test: Inhibition of EGFR by flash plate based radioactive enzyme assay
[9] = Inhibition of HDAC assessed as histone H3K'9+14 acetylation levels by cell based histone H3 hyperacetylation assay
[10] = biological target: Histone deacetylase 3 (Homo sapiens, UniProt O15379); test: Inhibition of Flag tagged human recombinant HDAC3 expressed in Sf21 cells coexpressing SMRT DAD domain
[11] = biological target: Platelet-derived growth factor receptor beta (Homo sapiens, UniProt P09619); test: Inhibition of PDGFRbeta by flash plate based radioactive enzyme assay
Platelet-derived growth factor receptor beta, sequence (P09619 whole entry): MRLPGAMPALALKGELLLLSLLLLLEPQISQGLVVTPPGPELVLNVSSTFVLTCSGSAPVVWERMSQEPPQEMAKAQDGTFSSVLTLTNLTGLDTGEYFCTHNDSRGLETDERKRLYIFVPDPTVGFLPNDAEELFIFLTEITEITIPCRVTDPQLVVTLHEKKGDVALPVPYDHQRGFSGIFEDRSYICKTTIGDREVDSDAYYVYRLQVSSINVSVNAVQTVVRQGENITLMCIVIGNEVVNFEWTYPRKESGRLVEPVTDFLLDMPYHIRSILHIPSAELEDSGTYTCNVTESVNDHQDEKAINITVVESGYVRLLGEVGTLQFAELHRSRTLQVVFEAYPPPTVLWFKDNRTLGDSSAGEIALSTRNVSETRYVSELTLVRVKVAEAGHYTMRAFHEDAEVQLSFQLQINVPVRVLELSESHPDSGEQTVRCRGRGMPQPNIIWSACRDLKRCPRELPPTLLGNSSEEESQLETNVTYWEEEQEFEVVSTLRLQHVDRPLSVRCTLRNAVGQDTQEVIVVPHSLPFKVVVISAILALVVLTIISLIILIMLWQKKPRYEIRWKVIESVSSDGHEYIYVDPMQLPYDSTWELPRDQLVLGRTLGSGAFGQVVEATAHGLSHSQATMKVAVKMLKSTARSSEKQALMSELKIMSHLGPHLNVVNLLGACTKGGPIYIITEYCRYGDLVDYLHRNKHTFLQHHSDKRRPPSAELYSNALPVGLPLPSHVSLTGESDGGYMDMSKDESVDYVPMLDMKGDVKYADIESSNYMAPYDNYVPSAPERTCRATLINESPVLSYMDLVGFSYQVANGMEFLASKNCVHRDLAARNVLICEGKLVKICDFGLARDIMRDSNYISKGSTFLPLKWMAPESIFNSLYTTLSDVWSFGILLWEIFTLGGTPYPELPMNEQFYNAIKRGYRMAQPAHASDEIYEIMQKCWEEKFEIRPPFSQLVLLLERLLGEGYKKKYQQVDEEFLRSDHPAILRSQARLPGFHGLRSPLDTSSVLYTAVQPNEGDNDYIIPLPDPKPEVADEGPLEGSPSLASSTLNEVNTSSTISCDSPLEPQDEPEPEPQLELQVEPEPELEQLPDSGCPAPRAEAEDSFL

[12] = biological target: T3, Protein deacetylase HDAC6 (Homo sapiens, UniProt Q9UBN7); test: Inhibition of human recombinant HDAC6 expressed in HEK293 cells; format: cell-based
T3 sequence (Q9UBN7 whole entry): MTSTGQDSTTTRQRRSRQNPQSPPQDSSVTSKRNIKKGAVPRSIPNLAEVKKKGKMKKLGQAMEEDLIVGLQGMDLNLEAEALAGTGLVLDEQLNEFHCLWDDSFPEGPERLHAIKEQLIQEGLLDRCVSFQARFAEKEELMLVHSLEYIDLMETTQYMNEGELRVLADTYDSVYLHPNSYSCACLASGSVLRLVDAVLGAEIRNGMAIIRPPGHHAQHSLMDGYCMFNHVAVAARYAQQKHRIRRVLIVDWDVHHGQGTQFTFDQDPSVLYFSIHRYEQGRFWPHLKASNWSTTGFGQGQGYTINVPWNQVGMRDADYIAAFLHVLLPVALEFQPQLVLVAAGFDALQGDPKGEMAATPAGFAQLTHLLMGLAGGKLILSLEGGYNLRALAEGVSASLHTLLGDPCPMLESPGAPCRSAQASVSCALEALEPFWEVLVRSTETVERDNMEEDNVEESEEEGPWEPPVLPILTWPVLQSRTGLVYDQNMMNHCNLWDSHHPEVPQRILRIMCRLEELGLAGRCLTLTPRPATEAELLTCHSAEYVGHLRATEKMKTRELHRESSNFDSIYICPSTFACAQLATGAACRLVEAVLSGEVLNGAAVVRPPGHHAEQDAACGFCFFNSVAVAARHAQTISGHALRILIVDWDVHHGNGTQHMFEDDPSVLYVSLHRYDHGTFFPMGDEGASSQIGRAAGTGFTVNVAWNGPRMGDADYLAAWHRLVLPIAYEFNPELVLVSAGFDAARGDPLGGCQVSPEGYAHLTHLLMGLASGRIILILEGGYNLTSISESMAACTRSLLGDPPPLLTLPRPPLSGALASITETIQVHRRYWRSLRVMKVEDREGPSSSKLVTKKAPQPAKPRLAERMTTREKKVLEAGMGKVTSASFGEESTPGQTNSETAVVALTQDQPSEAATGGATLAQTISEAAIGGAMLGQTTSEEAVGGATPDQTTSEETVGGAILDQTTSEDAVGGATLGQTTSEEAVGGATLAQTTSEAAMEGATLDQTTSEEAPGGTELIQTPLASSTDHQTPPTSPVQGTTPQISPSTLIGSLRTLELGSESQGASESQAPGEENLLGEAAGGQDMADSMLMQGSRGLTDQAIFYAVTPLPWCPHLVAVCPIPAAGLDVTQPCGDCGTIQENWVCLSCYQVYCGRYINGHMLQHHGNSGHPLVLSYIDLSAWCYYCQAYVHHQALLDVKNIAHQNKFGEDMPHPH

[13] = system: SK-OV-3; test: Cytotoxicity against human SKOV3 cells overexpressing HER2 by resazurin dye reduction assay; format: functional, cell-based
[14] = Inhibition of PKA by flash plate based radioactive enzyme assay
[15] = biological target: Histone deacetylase; test: Inhibition of HDAC in human HeLa cell nuclear extracts; format: cell-based
[16] = biological target: Insulin receptor (Homo sapiens, UniProt P06213); test: Inhibition of INSR by flash plate based radioactive enzyme assay
Insulin receptor, sequence (P06213 28-758 limits assumed): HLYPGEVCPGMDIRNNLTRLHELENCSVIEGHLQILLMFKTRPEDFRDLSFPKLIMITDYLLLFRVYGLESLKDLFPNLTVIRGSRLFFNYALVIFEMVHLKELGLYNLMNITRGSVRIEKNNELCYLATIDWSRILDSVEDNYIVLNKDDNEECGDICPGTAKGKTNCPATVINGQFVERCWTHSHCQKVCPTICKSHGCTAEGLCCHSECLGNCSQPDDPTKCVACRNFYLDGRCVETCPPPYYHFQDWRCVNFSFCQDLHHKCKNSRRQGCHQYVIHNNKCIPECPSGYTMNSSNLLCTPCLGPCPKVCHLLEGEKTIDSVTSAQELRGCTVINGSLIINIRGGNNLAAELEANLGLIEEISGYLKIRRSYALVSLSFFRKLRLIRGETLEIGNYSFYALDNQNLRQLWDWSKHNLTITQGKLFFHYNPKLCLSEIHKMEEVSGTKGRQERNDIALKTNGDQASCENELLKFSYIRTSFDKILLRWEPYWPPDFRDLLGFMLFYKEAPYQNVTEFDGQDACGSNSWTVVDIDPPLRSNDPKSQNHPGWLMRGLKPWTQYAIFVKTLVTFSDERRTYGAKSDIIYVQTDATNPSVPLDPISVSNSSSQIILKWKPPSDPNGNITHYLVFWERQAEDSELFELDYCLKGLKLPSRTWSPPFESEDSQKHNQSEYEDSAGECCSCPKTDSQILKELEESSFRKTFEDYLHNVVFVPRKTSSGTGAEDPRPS
Insulin receptor, sequence (P06213 763-1382 limits assumed): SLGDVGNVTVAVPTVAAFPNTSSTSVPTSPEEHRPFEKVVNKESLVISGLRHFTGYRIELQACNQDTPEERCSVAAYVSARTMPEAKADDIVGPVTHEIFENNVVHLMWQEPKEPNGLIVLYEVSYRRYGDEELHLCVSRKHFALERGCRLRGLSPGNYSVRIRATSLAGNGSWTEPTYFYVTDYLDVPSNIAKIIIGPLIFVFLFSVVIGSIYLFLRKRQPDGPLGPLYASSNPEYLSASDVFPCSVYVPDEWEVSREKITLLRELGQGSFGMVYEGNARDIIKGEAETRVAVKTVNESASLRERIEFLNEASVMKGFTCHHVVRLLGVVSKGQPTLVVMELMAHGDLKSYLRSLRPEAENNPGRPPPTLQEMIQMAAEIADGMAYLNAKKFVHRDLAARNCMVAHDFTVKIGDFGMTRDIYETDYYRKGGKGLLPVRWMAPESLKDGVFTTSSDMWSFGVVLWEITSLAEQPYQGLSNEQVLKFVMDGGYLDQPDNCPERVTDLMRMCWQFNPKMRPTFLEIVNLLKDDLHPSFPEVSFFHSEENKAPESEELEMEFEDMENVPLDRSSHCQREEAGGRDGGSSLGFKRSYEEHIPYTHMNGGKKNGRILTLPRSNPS

[17] = biological target: Tyrosine-protein kinase ABL1 (Homo sapiens, UniProt P00519); test: Inhibition of ABL1 by flash plate based radioactive enzyme assay
[18] = biological target: Histone deacetylase 1 (Homo sapiens, UniProt Q13547); test: Inhibition of human recombinant HDAC1 expressed in HEK293 cells; format: cell-based
Histone deacetylase 1, sequence (Q13547 whole entry): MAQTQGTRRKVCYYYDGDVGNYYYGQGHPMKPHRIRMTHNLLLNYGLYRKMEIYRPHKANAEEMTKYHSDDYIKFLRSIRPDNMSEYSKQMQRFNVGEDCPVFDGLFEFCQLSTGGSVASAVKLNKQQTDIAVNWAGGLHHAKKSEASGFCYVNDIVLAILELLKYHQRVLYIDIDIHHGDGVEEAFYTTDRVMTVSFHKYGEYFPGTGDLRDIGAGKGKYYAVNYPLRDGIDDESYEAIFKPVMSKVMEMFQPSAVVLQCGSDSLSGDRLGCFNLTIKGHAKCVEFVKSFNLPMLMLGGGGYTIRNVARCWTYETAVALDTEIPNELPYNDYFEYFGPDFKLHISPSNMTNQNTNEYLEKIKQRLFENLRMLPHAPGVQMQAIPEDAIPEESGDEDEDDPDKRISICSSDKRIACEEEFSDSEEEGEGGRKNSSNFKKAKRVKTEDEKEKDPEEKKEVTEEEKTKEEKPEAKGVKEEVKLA

[19] = biological target: Serine/threonine-protein kinase PLK1 (Homo sapiens, UniProt P53350); test: Inhibition of PLK1 by flash plate based radioactive enzyme assay
Serine/threonine-protein kinase PLK1, sequence (P53350 whole entry): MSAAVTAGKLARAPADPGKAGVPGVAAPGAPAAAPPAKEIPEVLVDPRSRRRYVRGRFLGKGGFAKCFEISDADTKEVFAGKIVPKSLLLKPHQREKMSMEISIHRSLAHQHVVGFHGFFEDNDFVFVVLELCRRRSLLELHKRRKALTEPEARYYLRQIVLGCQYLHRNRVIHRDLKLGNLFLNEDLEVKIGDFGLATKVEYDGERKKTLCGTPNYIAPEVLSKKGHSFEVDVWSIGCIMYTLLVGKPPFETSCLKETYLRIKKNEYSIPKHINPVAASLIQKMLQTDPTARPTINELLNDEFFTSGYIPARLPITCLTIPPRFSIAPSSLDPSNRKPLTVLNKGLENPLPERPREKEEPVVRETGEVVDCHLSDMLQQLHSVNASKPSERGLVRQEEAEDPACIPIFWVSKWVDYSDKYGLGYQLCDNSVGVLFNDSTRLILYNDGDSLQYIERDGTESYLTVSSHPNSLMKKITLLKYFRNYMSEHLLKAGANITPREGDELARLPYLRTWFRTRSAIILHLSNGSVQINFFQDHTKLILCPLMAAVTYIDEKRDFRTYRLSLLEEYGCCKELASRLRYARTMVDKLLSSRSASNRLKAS

[20] = system: HeLa; test: Cytotoxicity against human HeLa cells overexpressing HDAC by resazurin dye reduction assay
[21] = biological target: T2, Epidermal growth factor receptor; test: Inhibition of EGF-induced EGFR phosphorylation in human CAL27 cells overexpressing EGFR after 16 hrs by Western blot; format: cell-based, CAL-27

IC50 [1]	IC50 [3]	IC50 [7]	IC50 [8]	EC50 [9]	IC50 [10]	IC50 [11]	IC50 [12]	IC50 [14]	IC50 [15]	IC50 [16]	IC50 [17]	IC50 [18]	IC50 [19]	SMILES	IC50 [2]	IC50 [4]	IC50 [5]	IC50 [6]	IC50 [13]	IC50 [20]	further results
0.98 µM	0.0035 µM	0.2 µM	0.0022 µM	> 100 µM	0.56 µM	1.8 µM	0.05 µM	> 100 µM	0.43 µM	1.7 µM	1.7 µM	0.94 µM		O=C(NO)c1ccc(-c2ccc3ncnc(Nc4ccc(OCc5cccc(F)c5)c(Cl)c4)c3c2)s1	0.65 µM	3.4 µM	0.42 µM	1.9 µM	3.1 µM		
> 32 µM	0.015 µM	1.2 µM	0.029 µM	> 100 µM	> 32 µM	2.7 µM	> 32 µM	> 100 µM	> 32 µM	3 µM	4.9 µM	> 100 µM	6.2 µM	Nc1ccccc1NC(=O)/C=C/c1ccc(-c2ccc3ncnc(Nc4ccc(OCc5cccc(F)c5)c(Cl)c4)c3c2)cc1	4 µM	15 µM	17 µM	3.6 µM	16 µM	3.1 µM	
> 32 µM	0.0057 µM	15 µM	0.0029 µM	> 100 µM	> 32 µM	4 µM	> 10 µM	> 100 µM	> 100 µM		4.5 µM	> 50 µM	3.9 µM	Nc1ccccc1NC(=O)c1ccc(-c2ccc3ncnc(Nc4ccc(OCc5cccc(F)c5)c(Cl)c4)c3c2)o1	0.33 µM	≥ 16 µM		> 5 µM	> 50 µM	8 µM	
7.7 µM	0.002 µM	0.46 µM	0.0039 µM	> 100 µM	> 32 µM	1 µM		85 µM		1.4 µM	1.7 µM	> 50 µM	2 µM	O=C(NO)c1ccc(-c2ccc3ncnc(Nc4ccc(OCc5cccc(F)c5)c(Cl)c4)c3c2)o1	0.2 µM	> 16 µM	0.27 µM	> 5 µM	15 µM		
31 µM	0.012 µM	0.85 µM	0.018 µM	> 10 µM	> 32 µM	2.3 µM	0.23 µM	> 100 µM	> 32 µM	3.7 µM	4.9 µM	0.65 µM	9.1 µM	O=C(/C=C/c1ccc(-c2ccc3ncnc(Nc4ccc(OCc5cccc(F)c5)c(Cl)c4)c3c2)cc1)NO	0.28 µM	1.1 µM	0.33 µM	0.51 µM	1.2 µM	0.92 µM	
> 32 µM	0.0049 µM	2.1 µM	0.0028 µM	> 100 µM	> 32 µM	2.3 µM	> 10 µM	> 100 µM	> 10 µM	2.5 µM	6 µM	> 50 µM	5.6 µM	Nc1ccccc1NC(=O)c1ccc(-c2ccc3ncnc(Nc4ccc(OCc5cccc(F)c5)c(Cl)c4)c3c2)s1	0.71 µM	9.1 µM	0.62 µM	2.4 µM	3.9 µM	3.7 µM	
> 32 µM	0.014 µM	0.85 µM	0.049 µM	≥ 20 µM	> 32 µM	2.5 µM	> 32 µM	> 100 µM	> 32 µM	2.8 µM	2.9 µM	> 100 µM	5.5 µM	Nc1ccccc1NC(=O)/C=C/c1cccc(-c2ccc3ncnc(Nc4ccc(OCc5cccc(F)c5)c(Cl)c4)c3c2)c1	> 16 µM	27 µM	50 µM	12 µM	36 µM	8.4 µM	
11 µM	0.0041 µM	0.44 µM	0.0025 µM	3.65 µM	6.3 µM	3.3 µM	0.23 µM	120 µM	0.63 µM	7.34 µM	7.7 µM	0.61 µM	12 µM	O=C(/C=C/c1ccc(-c2ccc3ncnc(Nc4ccc(OCc5cccc(F)c5)c(Cl)c4)c3c2)o1)NO	0.82 µM	3.9 µM	0.51 µM	1.9 µM	2.1 µM	3.2 µM	IC50 [21]: < 0.032 µM
> 32 µM	0.0047 µM	1.4 µM	0.015 µM		> 32 µM	4.7 µM	> 32 µM	> 100 µM	> 32 µM	7.1 µM	6.9 µM	> 32 µM	27 µM	Nc1ccccc1NC(=O)CCc1ccc(-c2ccc3ncnc(Nc4ccc(OCc5cccc(F)c5)c(Cl)c4)c3c2)cc1	0.2 µM	22 µM	4.4 µM	8.6 µM	13 µM	8.3 µM	
> 32 µM	0.0087 µM	1.9 µM	0.026 µM		> 32 µM	3.9 µM	> 32 µM	> 100 µM	> 32 µM	5.5 µM	4.9 µM	> 100 µM	8.5 µM	Nc1ccccc1NC(=O)/C=C/c1ccc(-c2ccc3ncnc(Nc4ccc(OCc5cccc(F)c5)c(Cl)c4)c3c2)o1	3.6 µM	18 µM	0.26 µM	5.3 µM	22 µM	6.5 µM	

SMILES	IC50 [1]	IC50 [3]	IC50 [7]	IC50 [8]	EC50 [9]	IC50 [10]	IC50 [11]	IC50 [12]	IC50 [14]	IC50 [15]	IC50 [16]	IC50 [17]	IC50 [18]	IC50 [19]	IC50 [2]	IC50 [4]	IC50 [5]	IC50 [6]	IC50 [13]	IC50 [20]	further results
CS(=O)(=O)CCNCc1ccc(-c2ccc3ncnc(Nc4ccc(OCc5cccc(F)c5)c(Cl)c4)c3c2)o1 [LAPATINIB]	> 10 µM				> 30 µM	> 10 µM		> 10 µM	> 100 µM						0.007 µM		0.002 µM		0.003 µM	5.9 µM	
